Laboratory results: EP4282435A1, “FORMULATIONS OF ACTIVE PHARMACEUTICAL INGREDIENTS AND EXCIPIENTS IN ICELLS VIA HYDROPHOBIC ION PAIRING” (Danmarks Tekniske Universitet, priority 2022, dated 2023)
Counter-ions that a name gives are not always drawn. Like-named read-outs stand apart in the source and are kept apart here.

Experiments:
[1] = Method: After removing the supernatant, the complex was dissolved in methanol, transferred to a new glass vial and the solvent was dried under a gentle nitrogen flow. […] ICell was proportionally added to a vial containing Abaloparatide in its native form to achieve a final Abaloparatide concentration of 1 mg/g. Abaloparatide-HIP complexes were pre-dissolved in DMSO (corresponding to 5% weight of the final formulation), followed by the proportional addition of ICell to obtain a final Abaloparatide concentration of 1 mg/g.
S. aureus strain S54F9 = assay: Microbiological assay, Disc Diffusion Assay; type: cell-based, Staphylococcus aureus; details: Example 24, wells: 0.5 mg linoleic acid in DMSO; 0.5 mg vancomycin hydrochloride; 45 µl HIP complex + 45 µl PBS; 24 hours at 37 °C
Method: Then, 3 wells were carved out with the use of the broad side of an autoclaved 1 ml pipette tip.
This setup was repeated for three experimental replicates. Each plate was incubated for 24 hours at 37 °C, before inspection.
Then, 3 wells were carved out with the use of the broad side of an autoclaved 1 ml pipette tip. In one well, 0.5 mg linoleic acid was injected as 90 µl 0.22 µm-sterile-filtered dimethyl sulfoxide. In a second well, 90 µl autoclaved phosphate-buffered saline with 0.5 mg vancomycin hydrochloride was injected. […] The plate was incubated for 24 hours at 37 °C, before inspection.

[2] = SuBen:GTH:DMSO (60:15:25) ICell, visual

SMILES | solubility in ICell [1] | antimicrobial activity (clearance of S. aureus) (S. aureus strain S54F9) | solubility in ICell [2]
CC[C@H](C)[C@H](NC(=O)[C@H](CO)NC(=O)[C@H](CCCCN)NC(=O)CNC(=O)[C@H](CCCCN)NC(=O)[C@H](CC(=O)O)NC(=O)[C@H](Cc1cnc[nH]1)NC(=O)[C@H](CC(C)C)NC(=O)[C@H](CC(C)C)NC(=O)[C@H](CCC(N)=O)NC(=O)[C@H](Cc1cnc[nH]1)NC(=O)[C@H](CCC(=O)O)NC(=O)[C@H](CO)NC(=O)[C@@H](NC(=O)[C@H](C)N)C(C)C)C(=O)N[C@@H](CCC(N)=O)C(=O)N[C@@H](CC(=O)O)C(=O)N[C@@H](CC(C)C)C(=O)N[C@@H](CCCNC(=N)N)C(=O)N[C@@H](CCCNC(=N)N)C(=O)N[C@@H](CCCNC(=N)N)C(=O)N[C@@H](CCC(=O)O)C(=O)N[C@@H](CC(C)C)C(=O)N[C@@H](CC(C)C)C(=O)N[C@@H](CCC(=O)O)C(=O)N[C@@H](CCCCN)C(=O)N[C@@H](CC(C)C)C(=O)N[C@@H](CC(C)C)C(=O)NC(C)(C)C(=O)N[C@@H](CCCCN)C(=O)N[C@@H](CC(C)C)C(=O)N[C@@H](Cc1cnc[nH]1)C(=O)N[C@H](C(=O)N[C@@H](C)C(N)=O)[C@@H](C)O [Abaloparatide] | insoluble |  | 
CN[C@H](CC(C)C)C(=O)N[C@H]1C(=O)N[C@@H](CC(N)=O)C(=O)N[C@H]2C(=O)N[C@H]3C(=O)N[C@H](C(=O)N[C@H](C(=O)O)c4cc(O)cc(O)c4-c4cc3ccc4O)[C@H](O)c3ccc(c(Cl)c3)Oc3cc2cc(c3O[C@@H]2O[C@H](CO)[C@@H](O)[C@H](O)[C@H]2O[C@H]2C[C@](C)(N)[C@H](O)[C@H](C)O2)Oc2ccc(cc2Cl)[C@H]1O [Vancomycin hydrochloride] |  | clearance of S. aureus bacteria | not dissolvable
